Source: patent publication US20260256925A1, “INDAZOLE DERIVATIVES AS ESTROGEN RECEPTOR DEGRADERS” (REGENTS OF THE UNIVERSITY OF MICHIGAN, priority 2022, published 2026)

What was measured:
[1] = target: T1, ER (Homo sapiens, UniProt P03372); experiment: In-cell western blot analysis, relative ER percentage (compounds B1-B126); type: cell-based; details: ER degradation, 16 hours, read-out: ICW DC50
T1 construct: endogenous in cells; probably T47D or MCF-7
T1 sequence (P03372 1-595): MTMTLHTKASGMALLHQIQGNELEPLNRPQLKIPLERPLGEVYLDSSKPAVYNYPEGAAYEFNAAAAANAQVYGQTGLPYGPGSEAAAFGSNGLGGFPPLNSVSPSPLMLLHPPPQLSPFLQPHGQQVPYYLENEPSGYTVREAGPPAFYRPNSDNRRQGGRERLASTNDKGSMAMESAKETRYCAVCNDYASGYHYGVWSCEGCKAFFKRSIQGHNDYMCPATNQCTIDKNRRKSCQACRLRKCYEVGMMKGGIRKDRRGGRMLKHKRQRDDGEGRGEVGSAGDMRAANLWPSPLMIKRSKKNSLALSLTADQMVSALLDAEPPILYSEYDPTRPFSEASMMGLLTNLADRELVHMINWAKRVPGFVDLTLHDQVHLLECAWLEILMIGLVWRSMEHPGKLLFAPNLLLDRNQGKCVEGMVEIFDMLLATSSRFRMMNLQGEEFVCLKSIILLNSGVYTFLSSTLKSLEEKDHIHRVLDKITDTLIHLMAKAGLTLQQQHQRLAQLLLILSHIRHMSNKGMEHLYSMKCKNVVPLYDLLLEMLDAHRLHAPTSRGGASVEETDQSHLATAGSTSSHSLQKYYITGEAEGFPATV
Procedure: In-cell western blot analysis. Cells are seeded in multi-well plates (e.g., at 40,000 or 10,000 cells/well). Diluted compounds at certain concentration are added (final 0.5% DMSO) and cells are incubated for a certain period of time (e.g., 16 hours). Formaldehyde (e.g., PBS: FA=9:1) is added and followed by washing with PBS. The cells are blocked with Licor blocking buffer (Li-Cor). The relative ER percentage in treated cells are obtained by comparing the values of treated wells to those in untreated and DMSO-treated wells as 100%.
In-cell western blot analysis. a. seed cells in black-sided/clear bottom 96- or 384-well plates at 40,000 or 10,000 cells/well, overnight; b. add diluted compounds (final 0.5% DMSO), 16 hours. […] RT 2h, gentle shaking. Negative control: cells plus secondary antibodies (no primary antibodies); e. wash×4 with PBS +0.05-0.1% Tween 20, gentel shaking; f. anti-rabbit-680 and anti-mouse-800 (both 1:1000 in LiCor block+0.05% Tween20, RT 1h, gentle shaking, no light. LI-COR: 0.2% to reduce background; g. wash×4 with PBS+0.05% Tween 20, gental shaking; h. add 100 μL or 25 μL of PBS to each well and read on CLX plate reader. The relative ER percentage in treated cells were obtained by comparing the values of treated wells to those in untreated and DMSO-treated wells as 100%.

[2] = Cell growth assay, WST-8 (compounds B1-B126); type: cell-based; details: 96 h; T47D cell line, WST-8, 4 days; read-out: Cell growth inhibition in T47D cell line IC50
Procedure: Cell Growth Assay. The cells are seeded at certain concentration (e.g., at 1500/well) in multi-well plates overnight. Cells are subsequently treated with the compounds. A certain period of time (e.g., 4 days) after the compound treatment, 10% WST-8 reagent is added to the culture medium and incubate under certain condiction (e.g., in a CO2 incubator at 37° C. for 2.5 hours). The absorbance is measured on each sample using a microplate reader at certain wavelength (e.g., 450 nm). The relative absorbance is calculated against the vehicle control from three individually repeats.
Cell Growth Assay. The cells were seeded at 1500/well in 96 well plates overnight. One day after the seeding, they were treated with indicated doses of compounds respectively. 4 days after the compound treatment, 10% WST-8 reagent was added to the culture medium and incubate in a CO2 incubator at 37° C. for 2.5 hours. Before reading, the plate was mixed gently on an orbital shaker for one minute to ensure homogeneous distribution of color. The absorbance was measured of each sample using a microplate reader at a wavelength of 450 nm. The relative absorbance was calculated against the vehicle control from three individually repeats.

| Structure (SMILES) | DC50 [1] [nM] | IC50 [2] [nM] |
| --- | --- | --- |
| C[C@@H]1Cc2c(ccc3[nH]ncc23)[C@@H](c2c(F)cc(N3CC4(CN(C(=O)CN5CCN6c7cc8c(cc7OC[C@@H]6C5)C(=O)N(C5CCC(=O)NC5=O)C8)C4)C3)cc2F)N1CC(F)F (stereo partly drawn) [Compound B34, 3-((S)-3-(2-(6-(4-((6S,8R)-7-(2,2-difluoroethyl)-8-methyl-6,7,8,9-tetrahydro-3H-pyrazolo[4,3-f]isoquinolin-6-yl)-3,5-difluorophenyl)-2,6-diazaspiro[3.3]heptan-2-yl)-2-oxoethyl)-8-oxo-1,2,3,4,4a,5,8,10-octahydro-9H-pyrazino[1′,2′:4,5][1,4]oxazino[2,3-f]isoindol-9-yl)piperidine-2,6-dione] | < 10 | < 1 |
| C[C@@H]1Cc2c(ccc3[nH]ncc23)[C@@H](c2ccc(N3CC4(CC(CN5CCN6c7ccc8c(c7OC[C@H]6C5)CN(C5CCC(=O)NC5=O)C8=O)CO4)C3)cn2)N1CC(F)(F)F (stereo partly drawn) [Compound B96, 3-((5aR)-7-((2-(6-((6S,8R)-8-methyl-7-(2,2,2-trifluoroethyl)-6,7,8,9-tetrahydro-3H-pyrazolo[4,3-f]isoquinolin-6-yl)pyridin-3-yl)-5-oxa-2-azaspiro[3.4]octan-7-yl)methyl)-1-oxo-1,3,5,5a,6,7,8,9-octahydro-2H-pyrazino[1′,2′:4,5][1,4]oxazino[2,3-e]isoindol-2-yl)piperidine-2,6-dione] | < 10 | < 1 |
| C[C@@H]1Cc2c(ccc3[nH]ncc23)[C@@H](c2ccc(N3CCC4(CCN(CC(=O)N5Cc6cc7c(cc6C5)C(=O)N(C5CCC(=O)NC5=O)C7=O)CC4)CC3)cn2)N1CC(F)(F)F (stereo partly drawn) [Compound B48, 2-(2,6-dioxopiperidin-3-yl)-6-(2-(9-(6-((6S,8R)-8-methyl-7-(2,2,2-trifluoroethyl)-6,7,8,9-tetrahydro-3H-pyrazolo[4,3-f]isoquinolin-6-yl)pyridin-3-yl)-3,9-diazaspiro[5.5]undecan-3-yl)acetyl)-6,7-dihydropyrrolo[3,4-f]isoindole-1,3(2H,5H)-dione] | > 100 | > 10 |
| C[C@@H]1Cc2c(ccc3[nH]ncc23)[C@@H](c2c(F)cc(N3CCN(C(=O)CN4CCN5c6cc7c(cc6OC[C@@H]5C4)C(=O)N(C4CCC(=O)NC4=O)C7)CC3)cc2F)N1CC(F)F (stereo partly shown) [Compound B31] | 10 to 100 | < 1 |
| C[C@@H]1Cc2c(ccc3[nH]ncc23)[C@@H](c2ccc(N3CCC4(CC3)CC(CN3CCC5(CC3)COc3c5ccc5c3CN(C3CCC(=O)NC3=O)C5=O)C4)cn2)N1CC(F)(F)F (stereo partly drawn) [Compound B60, 3-(1′-((7-(6-((6S,8R)-8-methyl-7-(2,2,2-trifluoroethyl)-6,7,8,9-tetrahydro-3H-pyrazolo[4,3-f]isoquinolin-6-yl)pyridin-3-yl)-7-azaspiro[3.5]nonan-2-yl)methyl)-6-oxo-6,8-dihydro-2H,7H-spiro[furo[2,3-e]isoindole-3,4′-piperidin]-7-yl)piperidine-2,6-dione] | < 10 | < 1 |
| C[C@@H]1Cc2c(ccc3[nH]ncc23)[C@@H](c2ccc(N3CCC(N4CC(N5CCN6c7cc8c(cc7OC[C@@H]6C5)C(=O)N(C5CCC(=O)NC5=O)C8)C4)CC3)cn2)N1CC(F)(F)F (stereo partly drawn) [Compound B52, 3-((S)-3-(1-(1-(6-((6S,8R)-8-methyl-7-(2,2,2-trifluoroethyl)-6,7,8,9-tetrahydro-3H-pyrazolo[4,3-f]isoquinolin-6-yl)pyridin-3-yl)piperidin-4-yl)azetidin-3-yl)-8-oxo-1,2,3,4,4a,5,8,10-octahydro-9H-pyrazino[1′,2′:4,5][1,4]oxazino[2,3-f]isoindol-9-yl)piperidine-2,6-dione] | < 10 | < 1 |
| C[C@@H]1Cc2c(ccc3[nH]ncc23)[C@@H](c2c(F)cc(N3CCN(CC(=O)N4CCN5c6cc7c(cc6OC[C@@H]5C4)C(=O)N(C4CCC(=O)NC4=O)C7)CC3)cc2F)N1CC(F)F (stereo partly drawn) [Compound B32, 3-((S)-3-(2-(4-(4-((6S,8R)-7-(2,2-difluoroethyl)-8-methyl-6,7,8,9-tetrahydro-3H-pyrazolo[4,3-f]isoquinolin-6-yl)-3,5-difluorophenyl)pipcrazin-1-yl)acetyl)-8-oxo-1,2,3,4,4a,5,8,10-octahydro-9H-pyrazino[1′,2′:4,5][1,4]oxazino[2,3-f]isoindol-9-yl)piperidine-2,6-dione] | < 10 | < 1 |
| C[C@@H]1Cc2c(ccc3[nH]ncc23)[C@@H](c2ccc(N3CCC(CN4CCC5(CC4)COc4c5ccc5c4CN(C4CCC(=O)NC4=O)C5=O)CC3)cn2)N1CC(F)(F)F (stereo partly drawn) [Compound B62, 3-(1′-((1-(6-((6S,8R)-8-methyl-7-(2,2,2-trifluoroethyl)-6,7,8,9-tetrahydro-3H-pyrazolo[4,3-f]isoquinolin-6-yl)pyridin-3-yl)piperidin-4-yl)methyl)-6-oxo-6,8-dihydro-2H,7H-spiro[furo[2,3-e]isoindole-3,4′-piperidin]-7-yl)piperidine-2,6-dione] | > 100 | < 1 |
| C[C@@H]1Cc2c(ccc3[nH]ncc23)[C@@H](c2c(F)cc(N3CC4(CCN(C(=O)CN5CCN6c7cc8c(cc7OC[C@@H]6C5)C(=O)N(C5CCC(=O)NC5=O)C8)C4)C3)cc2F)N1CC(F)F (stereo partly drawn) [Compound B36, 3-((S)-3-(2-(2-(4-((6S,8R)-7-(2,2-difluoroethyl)-8-methyl-6,7,8,9-tetrahydro-3H-pyrazolo[4,3-f]isoquinolin-6-yl)-3,5-difluorophenyl)-2,6-diazaspiro[3.4]octan-6-yl)-2-oxoethyl)-8-oxo-1,2,3,4,4a,5,8,10-octahydro-9H-pyrazino[1′,2′:4,5][1,4]oxazino[2,3-f]isoindol-9-yl)piperidine-2,6-dione] | < 10 | < 1 |
| C[C@@H]1Cc2c(ccc3[nH]ncc23)[C@@H](c2ccc(N3CCC4(CC3)CC(CN3CCN5c6ccc(C(=O)N(C)C7CCC(=O)NC7=O)nc6OC[C@H]5C3)C4)cn2)N1CC(F)(F)F (stereo partly drawn) [Compound B92, (4aR)-N-(2,6-dioxopiperidin-3-yl)-N-methyl-3-((7-(6-((6S,8R)-8-methyl-7-(2,2,2-trifluoroethyl)-6,7,8,9-tetrahydro-3H-pyrazolo[4,3-f]isoquinolin-6-yl)pyridin-3-yl)-7-azaspiro[3.5]nonan-2-yl)methyl)-1,2,3,4,4a,5-hexahydropyrazino[1,2-d]pyrido[2,3-b][1,4]oxazine-8-carboxamide] | > 100 | > 10 |
| COc1cc(N2CCC3(CC2)CC(CN2CCN4c5cc6c(cc5OC[C@@H]4C2)C(=O)N(C2CCC(=O)NC2=O)C6)CO3)ccc1[C@@H]1c2ccc3[nH]ncc3c2C[C@@H](C)N1CC(F)F (stereo partly drawn) [Compound B79, 3-((4aS)-3-((8-(4-((6S,8R)-7-(2,2-difluoroethyl)-8-methyl-6,7,8,9-tetrahydro-3H-pyrazolo[4,3-f]isoquinolin-6-yl)-3-methoxyphenyl)-1-oxa-8-azaspiro[4.5]decan-3-yl)methyl)-8-oxo-1,2,3,4,4a,5,8,10-octahydro-9H-pyrazino[1′,2′:4,5][1,4]oxazino[2,3-f]isoindol-9-yl)piperidine-2,6-dione] | < 10 | < 1 |
